Reference: patent US20010036933A1, “Water soluble lipidated arabinogalactan” (The University of Montana, priority 1996, published 2001)

Key:
tumor metastases = settings: mice; cited from earlier work
[1] = test system: neutrophil-HUVEC adhesion; assay: Neutrophil-HUVEC adhesion under physiological shear forces (closed-loop capillary tube, video-microscopy); format: cell-based, human; settings: for effect on neutrophil rolling on activated HUVEC: 1-100 μg/ml
Experimental: The in vitro effects of Compound A-F listed in Table I on leucocyte and endothelial cell adhesion under physiological shear forces was examined as follows.
Human umbilical vein endothelial cells (HUVEC) were grown to confluence on the internal surface of collagen type I coated capillary tubes. Endothelial cells were stimulated for 4 hours with […] (10 ng, Genzyme), which upregulates adhesion molecules such as E-selectin within 4-6 hours. Neutrophils and lymphocytes were collected from normal human donors by venipuncture and separated from the blood on ficoll-histoplaque density gradients. The endothelial cell-coated tubes were then integrated into the closed-loop system. Leukocytes were infused into the assay system at a concentration of 1×10^6-5×10^6 cell/ml in DMEM plus 20 mM HEPES. Shear forces of 1-3 dynes/cm^2 (standard representation of blood flow) were applied via a variable speed peristaltic pump, and interactions between the leukocytes and endothelial cells were monitored by video-microscopy. Comparisons were made of the binding of leukocytes and endothelial cells treated with the 6 compounds and untreated controls.
To observe the effects of the compounds on neutrophil adhesive interactions, the neutrophils were infused and allowed to establish rolling for two minutes before the addition of the compounds. The compounds were added in increasing 1 μg/ml, 10 μg/ml, and 100 μg/ml final concentrations at 2 minute intervals. The interactions were recorded to video tape.

ovalbumin (“O.A.”) = assay: Assay of adjuvant activity: antibody formation in mice injected with ovalbumin plus arabinogalactan compound; format: in vivo; settings: for adjuvant activity in antibody formation in comparison to the control: 25 μg ovalbumin in saline with 50, 10 or 2 μg compound, booster day 21, bled days 7, 14, 28, 35
Experimental: In the experiment, 25 μg of ovalbumin (“O.A.”) was injected into mice in a saline solution together with 50, 10, 2 or 0 μg (the control) of the arabinogalactan compounds. The animals were prebled prior to immunization; injected; bled on days 7 and 14; given a booster injection on day 21; and bled on days 28 and 35 for antibody determination.

[2] = Formation of oil-water emulsions with water-soluble lipidated arabinogalactan; format: physicochemical
[3] = Solubility of progesterone in water and in aqueous AG decanoate (UV absorption at 250 nm); format: physicochemical; settings: 60° C. 10 min, then 25° C. 20 h
Experimental: Progesterone was heated with water at 60° C. for 10 min, then held at 25° C. for 20 h. […] When the above experiment was repeated with a 1% aqueous solution of AG decanoate (DS 2.59%) the saturated solution contained 4.7×10^−3% progesterone. In the UV analysis of the AG decanoate solution of the progesterone, the appropriate AG decanoate solution without progesterone was used as a spectrometer blank.

## AG (ultrarefined) [Compound A, reference compound]
Tumor metastases
  effect on tumor metastases: reduce tumor metastases
[1]
  effect on neutrophil rolling on activated HUVEC: significantly blocked
[1]; during the time course, 1, 10, 100 μg/ml added at 2 minute intervals, IL-stimulated HUVEC
  reduction in neutrophil adhesion: ~75%
[1]; even at 10 μg/ml or 100 μg/ml
  reduction of neutrophil binding to baseline: did not reduce binding to baseline
Ovalbumin (“O.A.”)
  adjuvant activity in antibody formation in comparison to the control: some adjuvant activity

## AG dodecyl ether (DS 1.3%) [F]
[1]
  effect on neutrophil rolling on activated HUVEC: no measurable effect

## AG decanoate (DS 2.6%)
[1]
  effect on neutrophil rolling on activated HUVEC: no measurable effect

## galactan from fractional hydrolysis of AG (arabinose 1.5%)
[1]
  effect on neutrophil rolling on activated HUVEC: no measurable effect

## AG palmitate (DS 1.7%) [C]
[2]; 2 mL 1.0% aqueous solution mixed with safflower oil (4 g), room temperature
  stability of emulsion with safflower oil: no separation of phases was evident after several days
[2]; 2 mL 1% solution shaken with hexane (1 mL)
  behaviour on shaking with hexane: upper phase became extremely viscous and opaque and remained in this state for several days
[1]
  concentration effective in blocking neutrophil-HUVEC adhesion: 1 µg/mL
  effect on neutrophil rolling on activated HUVEC: significantly blocked
Ovalbumin (“O.A.”)
  adjuvant activity in antibody formation in comparison to the control: some adjuvant activity
Ovalbumin (“O.A.”); ovalbumin antigen
  adjuvant activity, rank among the three arabinogalactan compounds: highest adjuvant activity

## AG stearate (DS 1.7%) [B]
[1]
  concentration effective in blocking neutrophil-HUVEC adhesion: 1 µg/mL
  effect on neutrophil rolling on activated HUVEC: significantly blocked

## CC(=O)[C@H]1CC[C@H]2[C@@H]3CCC4=CC(=O)CC[C@]4(C)[C@H]3CC[C@]12C [Progesterone]
[3]; 1% aqueous solution of AG decanoate (DS 2.59%)
  dissolved progesterone in saturated solution: 4.7×10^−3%
[3]; water
  dissolved progesterone in saturated solution: 8.8×10^−4%

## AG palmitate [high substitution (DS 7.3%) AG palmitate]
Ovalbumin (“O.A.”)
  adjuvant activity in antibody formation in comparison to the control: some adjuvant activity
